Laboratory results reported in patent publication US20240018146A1, “COMPOSITIONS AND METHODS OF USING THE SAME FOR TREATMENT OF NEURODEGENERATIVE AND MITOCHONDRIAL DISEASE” (MITOKININ, INC., priority 2020, published 2024).
≈ marks a conversion by molar mass, not a printed value. Like-named read-outs stand apart in the source and are kept apart here.

Key:
Kinetic solubility = assay type: physicochemical
[1] = Mitotoxicity / Mitotox safety margin (therapeutic window); assay type: cell-based; conditions: for mitotoxicity: FIG. 5-7
[2] = Inspection of crystallization and round cells; assay type: physicochemical; parameters: key: 1=yes crystals; 0=no crystals
Protocol: 5. Inspection of Crystallization and Round Cells
Briefly, the Hela MKYP (Mito-Keima/YFP-Parkin) cells were seeded at 10K cells/well. EP/MTK compounds were added at seeding (cells were still in suspension). The cells were incubated with the EP/MTK compounds for 16 hours, then 1 μM FCCP/oligomycin was added for 6 hours. Prior to harvesting, cells were scored by eye under 20× magnification for the presence or absence of crystalline or aggregated compound, or round cells.

HeLa MKYP cells [3] = experiment: Cell death measured by DAPI staining, with 1 μM FCCP/oligomycin or no toxin (no FO); assay type: cell-based; conditions: for E105 death at 8.3 μM (no FO): 8.3 μM compound; for Max cell death at 25 μM compound, 1 uM FO (%) / Cell death at 25 μM (no FO) (%) / E104 death at 25 μM (no FO): 25 μM compound
Method in brief: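 Cell death was read by DAPI staining after 6–6.5 h compound exposure in HeLa MKYP cells, either with 1 μM FCCP/oligomycin or without toxin. H2O2 served as the cell-death control.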

HeLa MKYP cells [4] = experiment: Human mitophagy assay (HeLa mKeima assay, FACS); assay type: cell-based; conditions: for EC50: Homo sapiens, HeLa
Method in brief: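 Mitophagy, read by FACS as the share of cells showing the lysosomal mtKeima emission shift, followed 6 h of 1 uM FCCP/oligomycin stimulation. Before that, HeLa MKYP cells spent 16 h with compound over a concentration range.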

pS129 α-syn = experiment: Preformed fibril (PFF) model in primary neuron culture, pS129 α-syn; assay type: cell-based; conditions: FIG. 8A-C
Protocol: 4. Preformed Fibril Model
Mouse and human alpha-synuclein monomers have been sourced commercially, then pre-formed fibrils have been generated as per the detailed protocol provided by the MJFF. For in vitro experiments primary hippocampal neurons isolated from P0 pups were grown for 7 days after which PFFs at 5 ug/ml were introduced Pre-formed fibrils will be introduced via stereotactic injection into the striatum of wt (C57BL/6J, Jax #000664) and transgenic A53T mice (B6;C3-Tg(Prnp-SNCA*A53T)83Vle/J, Jax #004479). Cohorts of drug-treated (oral gavage) and untreated animals will then be allowed to age for up to 6 months, at which point they will be sacrificed and perfused. Brains will be removed and fixed, then sectioned for analysis. We anticipate that untreated A53T animals will show significant spreading of aggregated alpha-synuclein pathology and pS129 staining, as well as some possible neurodegeneration; wt animals are also expected to show pS129 synuclein staining and synuclein aggregation, albeit less than that seen in the A53T background.

[5] = 25.0 μM compound, HeLa MKYP culture, 20× magnification
[6] = HeLa mKeima assay, read-out: Mitophagy EC50 (HeLa mKeima assay)
[7] = mitophagy, 1 μM FCCP/oligomycin, read-out: E100 EC50
[8] = read-out: Mitophagy induction EC50
[9] = mitophagy, 1 μM FCCP/oligomycin
[10] = average ± spread, read-out: E100 EC50 (μM) (average)

| Compound | solubility kinetic (Kinetic solubility) | Mitotox safety margin (Therapeutic window) [1] | mitotoxicity [1] | Mito-Safety Index (highest safe dose/EC50) [1] | Highest safe dose (μM) (mitotox or cytotox) [1] | visual inspection of crystallization ([2]; 0.1 μM compound) | visual inspection of crystallization ([2]; 0.3 μM compound) | visual inspection of crystallization ([2]; 0.9 μM compound) | E105 death at 8.3 μM (no FO) (HeLa MKYP cells [3]) | Max cell death at 25 μM compound, 1 uM FO (%) (HeLa MKYP cells [3]) | Cell death at 25 μM (no FO) (%) (HeLa MKYP cells [3]) | E104 death at 25 μM (no FO) (HeLa MKYP cells [3]) | Highest safe dose (cytotoxicity; no FO; safe means DAPI+ <20%) (HeLa MKYP cells [3]) | E103 max death with 1 μM FO (HeLa MKYP cells [3]) | Max % death with 1 μM FO (HeLa MKYP cells [3]) | E102 max mitophagy, fold over DMSO (HeLa MKYP cells [4]; 1 μM FCCP/oligomycin) | EC50 (HeLa MKYP cells [4]; [6]) | EC50 (HeLa MKYP cells [4]; [7]) | EC50 (HeLa MKYP cells [4]; [8]) | E101 lowest effective dose (HeLa MKYP cells [4]; [9]) | other results |
| --- | --- | --- | --- | --- | --- | --- | --- | --- | --- | --- | --- | --- | --- | --- | --- | --- | --- | --- | --- | --- | --- |
| FC(F)(F)c1cc2c(N[C@H]3c4ccccc4CC[C@@H]3N3CC4(CCOCC4)C3)ncnc2[nH]1 (single isomer, unassigned) [EP-0038463] | 153 µM (≈ 70 µg/mL) | + (+ = <10) | low mitotoxicity | 3.20 | 8.3 µM | 0 | 0 | 0 | 4.21 | 87.805% | 59.8% | 59.77 | 8.3 µM | 87.81 | 87.8% | 3.95 fold over DMSO | 2.59 µM | 2.59 µM | 2.59 µM | 2.78 µM | visual inspection of crystallization ([2]; 2.8 μM compound): 0; visual inspection of crystallization ([2]; 8.3 μM compound): 0; visual inspection of crystallization [2, 5]: 0 |
| FC(F)(F)c1cc2c(N[C@H]3c4ccccc4CC[C@@H]3N3CCOCC3)ncnc2[nH]1 (single isomer, unassigned) [EP-0038098] | 14.1 µM (≈ 5.89 µg/mL) | ++++ (++++ = 30<) | – | – | – | – | – | – | 2.59 | 24% | 5.29% | 5.29 | – | 24.02 | – | 9.78 fold over DMSO | 0.22 µM | 0.22 µM | – | 0.10 µM | pathological α-synuclein levels in primary neurons (pS129 α-syn): reduce pathological α-synuclein levels; toxicity (HeLa MKYP cells [3]; text statement referring to Tables 2A and 2B, FIG. 1A-F): less than 10%; EC50 (HeLa MKYP cells [4]; text statement referring to Tables 2A and 2B, FIG. 1A-F, read-out: EC50): < 0.3 µM |
| Fc1ccc2c(c1)CC[C@H](N1CCOCC1)[C@H]2Nc1ncnc2[nH]c(C3CC3)cc12 (single isomer, unassigned) [EP-0038521] | 1.56 µM (≈ 0.636 µg/mL) | +++ (+++ = 20 < x < 30) | low mitotoxicity | 24.49 | 8.3 µM | – | – | – | – | 6.77% | 3.42% | – | 25.0 µM | 6.77 | 7.6% | 5.24 fold over DMSO | 0.37 µM | 0.37 µM | 0.34 µM | 2.78 µM | EC50 (HeLa MKYP cells [4]; [10]): 0.3 ± 0.07 µM |
| Fc1ccc2c(c1)CC[C@@H](N1CCOCC1)[C@@H]2Nc1ncnc2[nH]c(C(F)(F)F)cc12 (single isomer, unassigned) [EP-0038504] | 1.56 µM (≈ 0.679 µg/mL) | + (+ = <10) | low mitotoxicity | 1.76 | 25.0 µM | – | – | – | 2.93 | 4.59% | 3.1% | 3.10 | 25.0 µM | 4.59 | 4.6% | 4.67 fold over DMSO | 14.2 µM | 14.2 µM | 14.2 µM | 8.33 µM | – |
| FC(F)(F)c1cc2c(N[C@H]3c4ccccc4CC[C@@H]3N3C[C@H]4COC[C@H]4C3)ncnc2[nH]1 [EP-0038461] | 1.56 µM (≈ 0.692 µg/mL) | +++ (+++ = 20 < x < 30) | low mitotoxicity | 27.53 | 2.8 µM | 0 | 0 | 0 | – | 7.97% | 4.31% | – | 25.0 µM | 7.97 | 9.7% | 5.44 fold over DMSO | 0.11 µM | 0.11 µM | 0.1 µM | 0.93 µM | visual inspection of crystallization ([2]; 2.8 μM compound): 0; visual inspection of crystallization ([2]; 8.3 μM compound): 0; visual inspection of crystallization [2, 5]: 1; EC50 (HeLa MKYP cells [4]; [10]): 0.1 ± 0.01 µM |
